From publication PMC6078987, “Molecular insights into antibiotic resistance - how a binding protein traps albicidin” (Nature Communications, 2018)
Values after ≈ are worked out from the molar mass of the structure shown. Values joined by “and” are separate entries in the source; they are usually repeats but may differ in a detail not shown here. Equal entries are not always repeated.

How the values were obtained:
[1] = biological target: AlbA; parameters: method as in PMID 9493391; settings: read-out: previously reported Kd; cited from earlier work
[2] = biological target: AlbAL (Klebsiella oxytoca, UniProt A0A9P0U153); experiment: CD-detected thermal unfolding of AlbAL; type: binding; settings: 1.5-fold ligand, 20 µM protein; AlbAL alone 71 °C
Experimental: For determination of the melting temperature and information on protein-ligand stability, CD measurements were performed on a J-815 CD spectrometer (Jasco, Groß-Umstadt, Germany). Protein samples (2.0 mM for AlbAS and 0.2 mM for AlbAL) were saturated with 1.5-fold albicidin and diluted to a protein concentration of 20 μM in order to ensure a final DMSO content of only 0.05% for AlbAS and 0.5% for AlbAL. A volume of 250 μL of the reaction mixture was transferred into a quartz cuvette with 1 mm path length. Six far-UV spectra were accumulated in a wavelength range of 195–300 nm (203–300 nm for AlbAL) at three different temperatures (10, 21, and 90 °C) with a scanning speed of 50 nm s^−1. For evaluation of the spectra the measured buffer blank (50 mM sodium hydrogen phosphate and 100 mM NaCl, pH 6.8) was subtracted from the averaged spectra. The temperature curves were recorded from 10–90 °C in 0.5 °C min^−1 steps while monitoring the ellipticity at 215 nm (218 nm for ALbAL). […] The melting temperatures of AlbAS, AlbAS–albicidin, AlbAS–compound 5, AlbAS–compound 7, AlbAL, and AlbAL–albicidin were determined by nonlinear regression of the measured data using Eq. (1). […] The Tm was thus determined by fitting the second transition representing the stabilized domain/species. […]

[3] = tested on: Staphylococcus aureus; parameters: method as in PMID 17074789, PMID 25504839; settings: cited from earlier work
[4] = biological target: T1, AlbAS (Klebsiella oxytoca, UniProt Q8KRS7); experiment: 1H-15N HSQC NMR binding assay; settings: 15N-labeled AlbAS, 1.5-fold excess of ligand
T1 sequence (Q8KRS7 1-221): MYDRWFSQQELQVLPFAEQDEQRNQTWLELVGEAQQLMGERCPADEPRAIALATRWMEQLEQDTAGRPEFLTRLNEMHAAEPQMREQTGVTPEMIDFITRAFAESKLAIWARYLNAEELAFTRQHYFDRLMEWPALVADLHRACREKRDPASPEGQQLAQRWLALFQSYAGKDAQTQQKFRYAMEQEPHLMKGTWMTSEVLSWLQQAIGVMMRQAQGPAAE
Experimental: For binding studies with albicidin and its derivatives, each ligand was dissolved in 100% d6-DMSO and added to ^15N-labeled AlbAS or ^2H, ^15N-labeled AlbAL in 50 mM sodium hydrogen phosphate (pH 6.8), 150 mM NaCl buffer (usually 0.24 mM AlbAS or AlbAL in 85% buffer, 5% d6-DMSO, and 10% D2O) yielding a 1.5-fold excess of the ligand. After incubation for 20 min at room temperature in the dark, the sample was centrifuged at 20 000 × g for 3 min and the supernatant was transferred to a 5 mm NMR tube. The AlbAS blank sample (Supplementary Figure 14) was measured in 100% buffer without addition of ligands and DMSO. Spectra were recorded on a Bruker Avance III 700 MHz NMR spectrometer (Bruker BioSpin, Rheinstetten, Germany) with a TXI probe head. Standard Bruker pulse sequences were used. 2D ^1H-^15N HSQC spectra were recorded at 298 K with acquisition times of 90 and 22 ms for the ^1H and ^15N dimension, respectively. The experiments were accumulated with ≥16 scans depending on protein sample concentration. 2D ^1H-^15N TROSY spectra were accumulated with 256 scans and acquisition times of 90 and 22 ms for the ^1H and ^15N dimension, respectively. Several AlbAS–albicidin samples were measured with the same result and a representative spectrum is given for the figures in the main manuscript and the SI. NMR experiments with AlbAS and albicidin analogs were conducted once with accumulation of ≥16 scans depending on protein concentration. For alignment of HSQC and TROSY spectra, the TROSY spectrum was corrected by 1/2 ^1JNH in both dimensions. […]

[5] = tested on: Salmonella enteritidis; parameters: method as in PMID 17074789, PMID 25504839; settings: cited from earlier work
[6] = biological target: T1, AlbAS; experiment: Fluorescence quenching binding assay (tryptophan fluorescence) with AlbAS
Experimental: Fluorescence quenching measurements were performed by monitoring tryptophan fluorescence of AlbAS (20 nM), AlbAL (20 nM), AlbASNTD, and AlbASCTD (100 nM) on a FluoroMax 2 spectrometer from Horiba (Potsdam, Germany). The excitation wavelength was set to λexc = 280 nm. Emission spectra were recorded from λem = 290–450 nm with a scanning speed of 1 nm s^−1 and an integration time of 1 s. The excitation and emission slit widths were set to 8 and 4 nm, respectively. Proteins were solved in 50 mM sodium phosphate buffer with 150 mM NaCl and 0.01% DMSO at pH 6.8. All measurements were performed twice and the standard deviation is given for the Kd and the Hill factor n. Data evaluation was performed by integration of the emission band (318–410 nm for AlbAS, 316–412 nm for AlbAL, and 319–390 nm for AlbASNTD and AlbASCTD) for every titration step. The area under the curve (AUC) of the buffer blank (buffer with 0.01% DMSO) was subtracted from the measured titration data. The quenching factor was determined by subtraction of AUCs for each titration step from the AUC of the protein in the absence of ligand. For determination of the AlbAS– and AlbAL–albicidin Kd values, the data were fitted to Eq. (2).2 Y=Bmax[L]^n/Kdn+[L]^n where [L], n, and Bmax denote the total ligand concentration, the Hill coefficient, and the maximum binding capacity of the protein, respectively.
For the determination of the Kd for AlbAS–compound 7 the data were fitted to Eq. (3).3 Y=Pt+L+Kd-Pt+L+Kd^2-4PtL/2 where Pt is the total protein concentration.

Sequence of AlbAL (A0A9P0U153 entry or part of it): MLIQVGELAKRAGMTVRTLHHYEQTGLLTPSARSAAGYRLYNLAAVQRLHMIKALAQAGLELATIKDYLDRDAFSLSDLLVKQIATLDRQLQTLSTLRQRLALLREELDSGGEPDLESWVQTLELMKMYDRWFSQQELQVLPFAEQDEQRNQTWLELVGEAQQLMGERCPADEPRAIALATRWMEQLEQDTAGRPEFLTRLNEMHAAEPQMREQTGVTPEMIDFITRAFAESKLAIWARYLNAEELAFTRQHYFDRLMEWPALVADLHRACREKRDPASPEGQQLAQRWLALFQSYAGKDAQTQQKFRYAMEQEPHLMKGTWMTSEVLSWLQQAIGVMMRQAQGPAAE

COc1c(NC(=O)c2ccc(NC(=O)c3ccc(NC(=O)[C@H](CC#N)NC(=O)c4ccc(NC(=O)/C(C)=C/c5ccc(O)cc5)cc4)cc3)c(OC)c2O)ccc(C(=O)O)c1O [albicidin]
Kd [1]: 64 nM
melting temperature Tm of AlbAL upon ligand binding [2]: 74 °C
MIC [3]: 4.0 mg/L (≈ 4.75 µM)
binding to AlbAS by HSQC signal pattern (in words) [4]: strong ligand binding in the nM–pM range
MIC [5]: 0.5 mg/L (≈ 0.593 µM)
Hill coefficient, n ([6]; AlbAS 20 nM, fluorescence quenching): 3.0 ± 0.5
Kd ([6]; AlbAS 20 nM, fluorescence quenching, pH 6.8): ≤ 5.6 nM and 5.6 nM
quenching of AlbAS emission ([6]; maximal quenching by ligand): 100%
